“Also recorded” adds a separate entry of the source.

The subject of one test is hippocampal slices. Nature of the test: Extracellular field potentials / spike frequency in hippocampal slices at P15 on isoguvacine. It counts as cell-based, mouse. The conditions noted are these: for normalized spike frequency: P15, isoguvacine (10 μM). From the text: Recording were made in the hippocampal slices using tungsten wire electrodes (diameter: 50 μm, California Fine Wire, Grover Beach, Calif.) and a low-noise multichannel DAM-8A amplifiers (WPI, GB; […]; gain: ×1000). The signals were digitized using an analogue-to-digital converter (Digidata 1440A, Axon Instruments, USA). pCLAMP 10.1, Clampfit 10.1 (Axon Instruments, USA), MiniAnalysis 6.03 (Synaptosoft, Decatur, Calif.) and Origin 7.5 (Microcal Software, USA) programs were used for the acquisition and analysis of the synaptic activities. Sampling interval per signal was 100 microseconds (10 kHz).
To test whether depolarizing actions of GABA were associated with neuronal excitation, the effect of the GABAA receptor agonist isoguvacine was tested. […] To test whether maternal treatment with bumetanide before delivery switches the action of GABA from excitatory to inhibitory in offsprings at P15, pregnant females were treated orally 1 day before delivery with bumetanide (2-2.5 mg/kg in drinking water) and juvenile offspring neurons recorded at P15. […] Therefore, excitatory actions of GABA during delivery produce long term deleterious effects on electrophysiological parameters of FXS juvenile neurons. In FXS mice, GABAergic inputs are excitatory and contribute to hyperexcitability of the network. Bumetanide decreases [Cl^−]i and consequently reduces contribution of excitatory GABAergic inputs in the overall network activity.

In the next test the test system is CA3 pyramidal cells. Nature of the test: Single GABAA channel recordings of driving force of GABA (DFGABA) in hippocampal slices, drug applied to slice. It counts as cell-based, mouse. The conditions noted are these: FXS neurons at P0 (birth); oxytocin 1 μM. As for the experimental part: Mice lacking Fmr1 (referred to as Fmr1^−/−) were bred in our animal facility. […] For all experiments, Fmr1^−/− mice were used with wild-type littermates as a control group. The offspring were used for experiments at E18, P0, P2, P4, P7, P9, P15 and P30. Experiments were carried out on offspring of either sex and in a blind manner at E18 and P0.
Experiments were performed on fetuses and neonatal wild type and Fragile X mice from the embryonic day […] to the postnatal day P38 (term is E21). All of the research was performed in compliance with the national guidelines on human care and use of laboratory animals and approved by INSERM.
Hippocampal slices (300-500 μm thick) were prepared using a Microm tissue slicer (International GmbH, Germany) as described previously (Tyzio et al., 2006, 2008). Slices were kept in oxygenated (95% O2/5% CO2) artificial cerebrospinal fluid (ACSF) of the following composition (in mM): NaCl 126, KCl 3.5, CaCl2 2.0, MgCl2 1.3, NaHCO3 25, NaH2PO4 1.2 and glucose 11 (pH 7.4) at room temperature (20-22° C.) at least 1 hour before use.
For recordings, slices were placed into a conventional fully submerged chamber superfused with ACSF at a rate of 2-3 ml/min at room temperature. Patch clamp recordings from visually identified CA3 pyramidal cells in cell-attached configuration were performed using EPC-10 amplifier (HEKA Elektronik Dr. Schulze GmbH, Lambrecht/Pfalz, Germany). Patch pipette solution for recordings of single GABAA channels contained (in mM): NaCl 120, KCl 5, TEA-Cl 20, 4-aminopyridine 5, CaCl2 0.1, MgCl2 10, glucose 10, Hepes-NaOH 10 buffered to pH 7.2-7.3 and GABA 2 μM. Analysis of currents through single channels and current-voltage relationships were performed using Clampfit 9.2 (Axon Instruments, Union City, Calif.). Recordings were digitized (10 kHz) online with Digidata-1200 interface card (Axon Instruments, Union City, Calif.) and analyzed offline with Axon package, MiniAnalysis (S (Synaptsoft, Decatur, Ga.), and Origin (Microcal Software, Northampton, Mass.). […]

`O=C(O)C1=CCNCC1` [isoguvacine]: the normalized spike frequency came out at 165.8±13.5% in the test on hippocampal slices (FXS mice) and 67.9±6.1% in the test with hippocampal slices (WT mice). In the test on hippocampal slices (naive neurons, P15, isoguvacine 2 μM), the “Effect on field potential recordings (in words)” value was “inhibited or did not affect field potential recordings”.

Regarding `CC[C@H](C)[C@@H]1NC(=O)[C@H](Cc2ccc(O)cc2)NC(=O)[C@@H](N)CSSC[C@@H](C(=O)N2CCC[C@H]2C(=O)N[C@@H](CC(C)C)C(=O)NCC(N)=O)NC(=O)[C@H](CC(N)=O)NC(=O)[C@H](CCC(N)=O)NC1=O` [oxytocin], in the test on CA3 pyramidal cells, the “Effect on DFGABA (in words)” value is on record as “shift it to hyperpolarization; also recorded: shifted DFGABA”.

The values above are taken from US10201507B2, “Modulators of intracellular chloride concentration for treating fragile X syndrome” (NEUROCHLORE, priority 2012, dated 2019).
